Assay results reported in patent US20140350092A1, “METHOD FOR […] VIRUS INFECTION” (Natura Corporation, priority 2003, published 2014).

How the values were obtained:
[1] = system: Japan cedar pollen; test: Assay of pollen enclosure (pollen rouleaux formation / pollen aggregation)
Experimental: In order to assay the actions of pectin and nucleic acid, contained in the contact preventive biological preparation of the present invention, on pollen, the following experiments were carried out. In the following experiments, by “pollen rouleaux formation” is meant a state in which a plurality of pollen particles continue linearly, and by “pollen aggregation” is meant a state in which a plurality of pollen particles constitute a bulk. Both “pollen rouleaux formation” and “pollen aggregation” denote a state in which pollen particles are captured by a medium and their free movement is inhibited, and as the degree thereof increases, the power of enclosing pollen increases.
Japan cedar pollen was put in a first water solution containing pectin (#168-00555 by Wako Pure Chemical Industries, Ltd.), in a second water solution containing glycerin, in a third water solution containing pectin and glycerin, and in a fourth water solution containing DNA (DN-JA0904, DK-JB0218 by Daiwa Fine Chemical Co. Ltd.), RNA (R6625 by Sigma), amino acid, and glycerin, and these water solutions were subjected to incubation for ten minutes at room temperature to prepare pollen developed liquids.
Each pollen developed liquid was instilled in the form of a drop onto a slide glass and was allowed to stand. After being dried, the test sample was stained by means of a ruthenium red solution and a gentian violet alcohol solution, and the assay of pollen rouleaux formation was examined microscopically.
In order to comparatively examine the actions of enclosing pollen by pectins, uronic acid-containing substances, and mucopolysaccharides according to the present invention, the following twelve kinds of samples were examined in the same way as the first exemplary embodiment. The twelve samples were: YM115-H; LM101-AS; Type DF; SLENDID type 100; SLENDID type 200; LM104AS-FS; LM-SCS; USP-H; USP-L; LH-105AS; AS Confectionary; and YM150-LJ by Genu.

[2] = after ingestion versus before ingestion; cited from earlier work
[3] = system: neuraminidase of the type A influenza virus; test: enzymatic activity of influenza-virus neuraminidase (synthetic coloring substrate); assay type: biochemical
Experimental: The activity of neuraminidase of the type A influenza virus was analyzed by an enzymic reaction with a synthetic coloring substrate (Gene Stat Flu Kit by Nichirei). This enzymic reaction is based on the power of neuraminidase to cut acetyl neuraminic, and darker solution's blue-coloring result indicates higher enzymatic activity.
A virus test body, taken from the larynx of a type A influenza infected patient, was divided into two sample pieces, i.e., a control sample and a sample used for the evaluation of the anti-enzyme activity of pectins.

[4] = system: pollenosis sufferer's white blood cells; test: in vitro cluster formation by pollenosis sufferer's white blood cells and pollen; assay type: cell-based, human; details: pollen dispersed in 0.3% pectin water solution
Experimental: White blood cells separated from the blood of a pollenosis sufferer was subjected to incubation on a slide glass with cedar pollen fixed thereonto.

[5] = system: basophiles in the blood of a pollenosis sufferer; test: emission of histamine from basophiles in the blood of a pollenosis sufferer; assay type: cell-based, human
Experimental: Blood sampling from a pollenosis sufferer was carried out, and basophiles recognized by a cell surface marker were separated by means of a magnet method. Then, the basophiles thus separated were exposed to a pollen extraction component fixed onto a micro plate, and emitted histamine was quantitatively measured by an absorbance method through a coloring reaction making use of antihistamic antibodies (HRT by Shionogi & Co., Ltd.).
A control sample making use of only a buffering solution, a sample comprising a pectin-containing buffering solution, and a nucleic acid-containing sample were prepared, and the rate of liberation of histamine with respect to the increase of allergen was comparatively examined. In the experiment, a cedar pollen extraction antigen was used as an allergen.

[6] = Application testing of eyedrop and nosedrop biological preparations on pollenosis sufferer; assay type: in vivo, human
Experimental: The contact preventive biological preparation according to the present invention was applied to eyedrop and nosedrop biological preparations and their application tests were carried out on test subjects. These eyedrop and nosedrop biological preparations according to the present exemplary embodiment contain therein pectin (type DF et cetera by Genu) and DNA (Daiwa Fine Chemical Co. Ltd.) at the following contents.
The content of pectin and the content of DNA are: pectin (0.03 to 1.0%); DNA (0.05 to 1.0%); 0.5% pectin+0.5% DNA; 0.8% pectin+0.2% DNA; and 0.2% pectin+0.8% DNA.
Pollenosis sufferers were test subjects, and the degree of improvement in itching symptom when each eyedrop biological preparation was administrated at the time of the development of an allergic reaction and its duration and application (use) feeling (the degree of uncomfortable feeling) were examined. The results thus obtained were evaluated according to the following evaluation standards.

[7] = Comparison in action with commercially available eyedrop and nosedrop biological preparations; design: species or system human; details: in vivo
Source text: Conventional, commercially available eyedrop and nosedrop biological preparations against pollenosis symptoms were compared with the biological preparations according to the present invention in the action with respect to the manifestation of pollenosis symptoms.
The commercially available nosedrop biological preparations contain a vasopressor agent, an antihistamic agent, a bactericidal substance, a fragrant material et cetera.

[8] = system: Japan cedar pollen; test: Assay of pollen enclosure (pollen rouleaux formation / pollen aggregation); details: in biological preparations (artificial tears, nose spray, mouth washer) and drug solutions

OB(O)O [boric acid]
effect on pollen aggregation / dispersion [1]: promoted the aggregation of pollen | pollen burst [1]: causing pollen to burst

N[C@@H](CCC(=O)O)C(=O)O [glutamic acid]
effect of additive on the pollen enclosing action of pectin [1]: reinforce the action of enclosing pollen by pectin

OC[C@H]1O[C@H](O[C@H]2O[C@H](CO)[C@@H](O)[C@H](O)[C@H]2O)[C@H](O)[C@@H](O)[C@@H]1O [trehalose]
effect of additive on the pollen enclosing action of pectin [1]: reinforced

apple pectin
drop of concentration of histamine in the blood [2]: 24%

carboxymethyl cellulose
effect of additive on the pollen enclosing action of pectin [1]: reinforced

carrageenan [carrageenan (K-100J), reference compound]
pollen enclosing power ([1]; comparison of samples, same way as first exemplary embodiment): less significant in pollen enclosing power than the others

cluster dextrin
effect of additive on the pollen enclosing action of pectin [1]: reinforced

heparin [reference compound]
neuraminidase enzymatic activity (blue color reaction) ([3]; heparin 20 unit/ml): color exhibition of blue coloring became dull

methyl cellulose
effect of additive on the pollen enclosing action of pectin [1]: reinforced

pectin
pollen rouleaux formation ([1]; no pectin or pectin at a low concentration of less than 0.3%): no rouleaux capture of cedar pollen was detected | pollen rouleaux formation ([1]; pectin from about 0.03 to about 3.0%): pollen rouleaux formation was promoted | accumulation of white blood cells on pollen [4]: no tendency to accumulate on pollen | effect of preventing the liberation of histamine ([5]; 0.03% pectin alone, FIG. 2): impossible for a 0.03% pectin-containing sample alone to provide a satisfactory effect | liberation of histamine from basophiles ([5]; 0.03% pectin, cedar pollen extraction antigen, FIG. 1): inhibited over a wide range | liberation of histamine from basophiles ([5]; pectin about 0.1% to about 0.3%, high-concentration cedar pollen): inhibited | neuraminidase enzymatic activity (blue color reaction) ([3]; 0.05% pectin (USD-H by Genu)): no color reaction was observed | curative properties against the symptoms ([6]; eyedrop, FIG. 3, 0.5% pectin or 0.5% DNA): obvious curative properties against the symptoms | application feeling ([6]; eyedrops of a pectin concentration of 0.5% or more): caused a sticky feeling | curative properties against pollenosis symptoms (itching and snuffles) ([6]; pectin from 0.03 to 1%, used alone): curative properties against pollenosis symptoms | irritation / sensation on application [7]: felling of drying | pollen enclosing function of pectin in presence of other components [8]: exerted satisfactorily without any interference
